Laboratory results published in PMC2913105 (British Journal of Pharmacology, 2010).

Tests used:
[1] = test system: phospholipase C; assay type: cell-based, rat
[2] = molecular target: T1, P2Y14 receptors (Rattus norvegicus, UniProt O35881); assay type: cell-based; conditions: agonist 10 µM; not shown
T1 sequence (O35881 1-305): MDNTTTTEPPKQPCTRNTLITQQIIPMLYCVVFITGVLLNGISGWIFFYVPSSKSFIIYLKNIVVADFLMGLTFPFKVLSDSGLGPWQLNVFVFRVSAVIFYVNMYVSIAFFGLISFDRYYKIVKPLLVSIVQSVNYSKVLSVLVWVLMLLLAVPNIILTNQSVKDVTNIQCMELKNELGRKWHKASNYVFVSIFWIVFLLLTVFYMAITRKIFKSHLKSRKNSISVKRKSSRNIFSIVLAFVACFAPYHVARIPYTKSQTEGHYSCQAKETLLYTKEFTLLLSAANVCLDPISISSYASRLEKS

[3] = test system: P2Y receptors; experiment: Ca2+ signals; assay type: cell-based, rat; conditions: for Δ[Ca2+]i Peak: peak increase in [Ca2+]i, populations of cultured ASMC; for pEC50 Peak (with Ca2+): peak response in HBS; for pEC50 Ca2+ entry: sustained Ca2+ entry signal; for Δ[Ca2+]i Sustained: sustained increase measured between 250 and 300 s, cultured ASMC; for pEC50 Peak (Ca2+-free): peak response in Ca2+-free HBS
[4] = ref Abbracchio et al., 2006; cited from earlier work
[5] = test system: Gi/o; assay type: cell-based, rat
[6] = test system: P2X1 and P2X3 receptors; conditions: not shown

## COc1ccc2c(c1)CC[C@@H]1[C@@H]2CC[C@]2(C)[C@@H](NCCCCCCN3C(=O)C=CC3=O)CC[C@@H]12 [U73122, 1-[6-[[(17β)-3-methoxyestra-1,3,5 (10)-trien-17-yl]amino]hexyl]-1H-pyrrole-2,5-dione]
[1]; ATP 100 µM, inhibitor added 5 min before and during stimulation
  pIC50 for inhibition of Ca2+ signals evoked by ATP: 5.78 ± 0.07
[1]; not shown
  Effect on Ca2+ responses to UTP and UDP: abolished

## diphosphoric acid 1-α-D-glucopyranosyl ester 2-[(4′-methylthio)uridin-5″-yl] ester [MRS2690]
[2]
  Ca2+ signals evoked in cultured ASMC: Neither MRS2690 (10 µM) nor UDP-glucose (10 µM) evoked Ca^2+ signals

## CSc1nc(N)c2ncn([C@@H]3O[C@H](COP(=O)(O)OP(=O)(O)O)[C@@H](O)[C@H]3O)c2n1 [2-MeSADP, 2-methylthio-adenosine-5′-diphosphate]
[3]
  Δ[Ca2+]i Peak: 122 ± 30 nM
  pEC50 Peak (with Ca2+): 7.23 ± 0.53
  pEC50 Ca2+ entry: 5.58 ± 0.16
  Δ[Ca2+]i Sustained: 18 ± 4 nM

## S=C=Nc1cccc(NC(=S)NCCCCNC(=S)Nc2cccc(N=C=S)c2)c1 [MRS2578, N,N″-1,4-butanediylbis [N′-(3-isothiocyanatophenyl)thio] urea]
[4]
  Solubility in aqueous solution: sparingly soluble
  Stability in aqueous solution: unstable

## COc1ccc2c(c1)CC[C@@H]1[C@@H]2CC[C@]2(C)[C@@H](NCCCCCCN3C(=O)CCC3=O)CC[C@@H]12 [U73343, 1-[6-[((17β)-3-methoxyestra-1,3,5 (10)-trien-17-yl)amino]hexyl]-2,5-pyrrolidinedione]
[1]; ATP 100 µM, inactive analogue of U73122
  Effect on Ca2+ signals evoked by ATP: no effect

## CSc1nc(N)c2ncn([C@H]3[C@H](O)[C@H](O)[C@]4(COP(=O)(O)OP(=O)(O)O)C[C@H]34)c2n1 [MRS2365, (N)-methanocarba-2-MeSADP]
[3]
  Δ[Ca2+]i Peak: 154 ± 5 nM
  pEC50 Peak (Ca2+-free): 8.56 ± 0.06
  pEC50 Peak (with Ca2+): 8.68 ± 0.16
  pEC50 Ca2+ entry: 8.11 ± 0.32
  Δ[Ca2+]i Sustained: 18 ± 7 nM

## Pertussis toxin
[5]; Pertussis toxin 100 ng·mL−1, 24 h
  Effect on responses to UDP: unaffected

## Nc1ncnc2c1ncn2C1OC(COP(=O)(O)CP(=O)(O)OP(=O)(O)O)C(O)C1O (stereo not drawn) [αβ-meATP, αβ-methylene-adenosine-5′-triphosphate]
[6]
  Ca2+ response in cultured ASMC: no response

## O=c1ccn([C@@H]2O[C@H](COP(=O)(O)OP(=O)(O)OP(=O)(O)O)[C@@H](O)[C@H]2O)c(=O)[nH]1 [UTP]
[3]
  Δ[Ca2+]i Peak: 254 ± 47 nM
  pEC50 Peak (Ca2+-free): 5.39 ± 0.15
  pEC50 Peak (with Ca2+): 5.23 ± 0.22
  pEC50 Ca2+ entry: 4.64 ± 0.32
  Δ[Ca2+]i Sustained: 67 ± 5 nM

## O=c1ccn([C@@H]2O[C@H](COP(=O)(O)OP(=O)(O)O)[C@@H](O)[C@H]2O)c(=O)[nH]1 [UDP]
[3]
  Δ[Ca2+]i Peak: 94 ± 20 nM
  pEC50 Peak (Ca2+-free): 6.16 ± 0.43
  pEC50 Peak (with Ca2+): 6.45 ± 0.45
  pEC50 Ca2+ entry: 6.83 ± 0.35
  Δ[Ca2+]i Sustained: 25 ± 6 nM

## N[C@@H]1[C@H](O)[C@@H](COP(=O)(O)OP(=O)(O)OP(=O)(O)O)O[C@H]1n1ccc(=O)[nH]c1=O [2′-amino-UTP, 2′-amino-2′-deoxyuridine-5′-triphosphate]
[3]
  Δ[Ca2+]i Peak: 301 ± 34 nM
  pEC50 Peak (with Ca2+): 5.58 ± 0.37
  pEC50 Ca2+ entry: 5.40 ± 0.23
  Δ[Ca2+]i Sustained: 84 ± 36 nM

## Nc1ncnc2c1ncn2[C@@H]1O[C@H](COP(=O)(O)OP(=O)(O)OP(=O)(O)O)[C@@H](O)[C@H]1O [ATP]
[5]
  pEC50 of ATP, peak Ca2+ signal, after Pertussis toxin: 5.30 ± 0.08
[5]; paired control
  pEC50 of ATP, peak Ca2+ signal, without Pertussis toxin: 5.63 ± 0.09
[3]
  Δ[Ca2+]i Peak: 248 ± 48 nM
  pEC50 Peak (Ca2+-free): 5.95 ± 0.10
  pEC50 Peak (with Ca2+): 5.83 ± 0.03
  pEC50 Ca2+ entry: 5.01 ± 0.13
  Δ[Ca2+]i Sustained: 64 ± 20 nM

## [N-]=[N+]=N[C@@H]1[C@H](O)[C@@H](COP(=O)(O)OP(=O)(O)OP(=O)(O)O)O[C@H]1n1ccc(=O)[nH]c1=O [2′-azido-UTP, 2′-azido-2′-deoxyuridine-5′-triphosphate]
[3]
  Δ[Ca2+]i Peak: 142 ± 29 nM
  pEC50 Peak (with Ca2+): 4.67 ± 0.32
  pEC50 Ca2+ entry: 4.67 ± 0.06
  Δ[Ca2+]i Sustained: 55 ± 20 nM

## O=c1ccn([C@@H]2O[C@H](COP(=O)(O)OP(=O)(O)OP(=O)(O)O)[C@@H](O)[C@H]2O)c(=S)[nH]1 [2-thio-UTP, 2-thio-uridine-5′-triphosphate]
[3]
  Δ[Ca2+]i Peak: 327 ± 42 nM
  pEC50 Peak (with Ca2+): 5.89 ± 0.29
  Δ[Ca2+]i Sustained: 88 ± 26 nM
